Test system: MC-38-hPD-L1 tumor cells
Assay: Anti-tumor efficacy in MC-38-hPD-L1 models
Assay type: in vivo
Details: MC-38-hPD-L1, C57BL/6-hPD-1 mice; 20 mg/kg, IP, BIW; 19 days
Description: Materials required for the experiment: Antibody: PD-L1 antibody Durvalumab, Product specifications: 120 mg/2.4 mL(50 mg/mL), Lot No.: 041E17C, Manufacture: AstraZeneca, purchased from Hongkong Mingchuang Medical Limited, storage at 2-8° C. Experimental animal: 120 C57BL/6-hPD-1 mice, female, 6˜8 weeks old, 18˜21 g, purchased from Jiangsu Gem Pharmatech Co. Ltd. Formulation material: castor oil (Cremophor RH40), CAS No.: 61788-85-0, Lot No.: 29761847G0, purchased from Shanghai Xietai Chemical Co. Ltd.; β-cyclodextrin (SBE-β-CD), CAS No.: 128446-35-5, Lot No.: R1804474, purchased from Shanghai Shaoyuan Chemical Co. Ltd.; DMEM culture medium, CAS No.: 11995-065, Lot No.: 2025378, purchased from Gibco Co. Ltd.; PBS, Art. No.: SH30256.01, Lot No.: AB10141338, purchased from HyClone Co. Ltd.; Fetal bovine serum: CAS No.: 10099-141, Lot No.: 1966174C, purchased from Gibco Co. Ltd.; hygromycinB: CAS No.: 10687010, Lot No.: HY069-L12 purchased from Invitrogen.
Cell culture: The MC-38 tumor cells (NCI) were maintained in vitro as a monolayer culture in DMEM medium supplemented with 10% heat inactivated fetal bovine serum, 100 μg/mL hygromycinB at 37° C. in an atmosphere of 5% CO2 in air. The tumor cells were routinely subcultured three times weekly by trypsin-EDTA treatment. The cells growing to a confluency around 70%-80% were harvested and counted for tumor inoculation.
Tumor cell inoculation and group administration: The 100 uL cell suspension containing 1×10^6 MC-38-hPD-L1 tumor cells (cells suspended in base DMEM medium) was inoculated into right dorsal subcutaneous area in mice. 6 days after inoculation, 60 tumor-bearing mice with transplanted tumors ranging from 31.49 mm^3 to 110.26 mm^3 were selected, stratified randomization was used to group and start the administration on the day of grouping.
Preparation of test substances: Preparation of formulation: 800 mL of sterile water was added into the volumetric flask with magnetic stirring to have a vortex. 100 g of castor oil (Cremophor RH40) was added with a spoon slowly into the vortex and the solution was kept stirring. 200 g of β-cyclodextrin (SBE-β-CD) was added while the solution was kept stirring until the solution was clear, and the total volume was set to 1000 mL, which contained 10% (w/v) Cremophor RH40+20% (w/v) an aqueous solution of SBE-β-CD.
Preparation of Compound Suspension: 150.92 mg compound was weighed and 12.5 mL 10% (w/v) Cremophor RH40+20% (w/v) SBE-β-CD aqueous solution were added. The suspension solution with a concentration of 12.0 mg/mL was obtained by vortex for 2 minutes and ultrasound for 30 minutes. 5.0 mL of the compound suspension solution with concentration of 12.0 mg/mL was pipetted and 5.0 mL aqueous formulation solution was added. The suspension solution with a concentration of 6.0 mg/mL was obtained by vortex for 1 minute and sonicated by ultrasound for 5 minutes. 2.0 mL of the compound suspension solution with concentration of 6.0 mg/mL was pipetted and […] was added. The suspension solution with a concentration of 3.0 mg/mL was obtained by vortex for 1 minute and sonicated by ultrasound for 5 minutes. Compound suspension solution was prepared once a day.
Preparation of hPD-L1 antibody: 0.12 mL PD-L1 antibody Durvalumab (50 mg/mL) original solution was pipetted and divided into […] in 5 mL sterile centrifugal tube, which were packed with each containing 6.0 mg. They were stored in refrigerator at 4° C. Before administration, a raw solution containing 0.12 mL and 50 mg/mL was taken, and 2.88 mL 0.9% sodium chloride solution was added to make the solution thoroughly mixed. 3 mL Duvalumab solution with the concentration 2 mg/mL was obtained.
Procedure: The mice in the vehicle group were weighed and recorded in the electronic balance according to their numbers. […]

Q: Which results are given for Durvalumab [reference compound]?
A: TGI: 48.17%; Tumor Volume: 341.19 ± 56.59 mm^3

Reference: US20220313626A1, “SMALL MOLECULE INHIBITORS FOR TREATING CANCER IN A SUBJECT HAVING TUMORS WITH HIGH INTERSTITIAL PRESSURE” (GUANGZHOU MAXINOVEL PHARMACEUTICALS CO., LTD., priority 2019, published 2022)
